{
  "source": "patent EP2349259B1",
  "about": "“INHIBITORS OF MITOSIS FOR […] IN THERAPY” (Array Biopharma, Inc., priority 2008, dated 2010)",
  "key": {"[1]": {"experiment": "Tolerability in tumor growth inhibition study on different dosing schedules (HT-29)", "format": "in vivo, nude mice", "conditions": "10 mg/kg IP on days 1, 2, 3, 4 and 5", "experimental": "Female nude mice were implanted subcutaneously with 5 x 10^6 HT-29 cells in 100 µL PBS. Eleven to fourteen days later, tumors were measured and mice randomized into groups of seven with average tumor volume in each group of approximately 230 mm^3. Compound 4 was dissolved in normal saline immediately prior to dosing, and administered IP at a volume of 10 mL/kg. Dosing was vehicle alone on day 1 and day 2; and Compound 4 at 20 mg/kg on day 1; 20 mg/kg on days I and 2; 20 mg/kg on days 1 and 3; 5 mg/kg on days 1, 2 and 3; 10 mg/kg on days 1, 2 and 3; 10 mg/kg on days 1, 2, 3, 4 and 5; 10 mg/kg on days 1 and 2; and 10 mg/kg on days 1 and 3. Animal weights and tumor volumes were measured (using electronic calipers) twice a week. Tumor volume was calculated using the formula: volume = (width^2 x length)/2. Dosing at 10 mg/kg on days 1, 2, 3, 4 and 5 was not tolerated (greater than 20% weight loss and/or death in some of the mice)."}, "[2]": {"experiment": "Determination of MTD in a Phase 1 Study", "format": "in vivo, human", "conditions": "IV on Days 1 and 2 every two weeks", "source_text": "A total of 13 patients with various solid tumors and with a median age of 66 years (range 40-79 years old) were enrolled in a human phase 1 clinical trial (see \"Phase 1 Safety and Phamacokinetic Study of ARRY-520 in Solid Tumors.\" http://clinicaltrials.gov/ct2/show/NCT00462358). The solid tumors treated were breast cancer (2), colorectal cancer (2), non-small cell lung cancer (2), pancreatic cancer (2), bladder cancer, salivary gland cancer (adenoid cystic), esophageal cancer, mesothelioma cancer, and a mixed small cell lung cancer / non-small cell lung cancer. Compound 4 was provided for administration as a lyophilized powder contained in a Type 1 clear glass vial for IV use. The dose levels administered were 1.25 and 1.6 mg/m^2/day of Compound 4 on Days 1 and 2 every two weeks."}, "[3]": {"experiment": "Determination of MTD of Compound 4 in mice (HT-29 xenograft study)", "conditions": "mouse, in vivo; female nude mice with subcutaneous HT-29 xenografts; compound dissolved in normal saline", "experimental": "Female nude mice were implanted subcutaneously with 5 x 10^6 HT-29 cells in 100 µL PBS. Ten days Inter, tumors were measured and mice randomized into groups of three with average tumor volume in each group of approximately 240 mm^3. Compound 4 was dissolved in normal saline immediately before dosing. It was determined that 20 mg/kg was the MTD for Compound 4. Dose volume was 10 mL/kg. Dosing was vehicle alone on day 1; and Compound 4 at 20 mg/kg on day 1; and 20 mg/kg on days 1 and 3. At various time points after dosing (24, 48, 72, 96, 120 and 144 hours), mice were euthanized by CO2 inhalation, and the tumors were harvested and immediately placed in formalin. The vehicle control group samples were collected 24 and 72 hours after dosing. The day I group samples were collected 24, 48, 72 and 96 hours after that dose. The day 1 and day 3 group samples were collected 72, 96, 120 and 144 hours after the first dose. Paraffin blocks of tumor tissue were prepared by standard procedures. […] Spindle structures were manually counted in three 40X areas of each sample, using a fluorescent microscope. Apoptosis was quantitated by manual counting of TUNEL positive cells, also in three 40X areas of each sample (TUNEL staining using the In Situ Cell Death Detection Kit, AP from Roche)."}},
  "data": [
    {"smiles": "CON(C)C(=O)N1N=C(c2cc(F)ccc2F)S[C@@]1(CCCN)c1ccccc1", "note": "[Compound 4, (S)-2-(3-aminopropyl)-5-(2,5-difluorophenyl)-N-methoxy-N-methyl-2-phenyl-1,3,4-thiadiazole-3(2H)-carboxamide]", "values": [
      {"measurement": "tolerability of dosing schedule", "setting": "[1]; female nude mice with HT-29 xenografts", "result": "not tolerated"},
      {"measurement": "weight loss", "setting": "[1]; weight loss and/or death in some of the mice", "result": "greater than 20%"},
      {"measurement": "MTD", "setting": "[2]; 13 patients with various solid tumors, dose levels 1.25 and 1.6 mg/m^2/day", "result": 1.25, "unit": "mg/m^2/day"},
      {"measurement": "DLTs", "setting": "[2]; patients with solid tumors", "result": "Grade 3 hyponatremia, anorexia, AST increase and febrile neutropenia"},
      {"measurement": "MTD, cumulative dose per cycle", "setting": "[2]; patients with solid tumors", "result": 2.5, "unit": "mg/m^2"},
      {"measurement": "MTD", "setting": "[3]", "result": 20, "unit": "mg/kg"}
    ]}
  ]
}
